The values below come from patent US12599582B2, “Pyrrole compounds” (ALIGOS THERAPEUTICS, INC., priority 2019, dated 2026).

Read-outs that look alike come from different tables or passages of the source.

The experiment concerns HBV. Nature of the experiment: HBV-DNA Antiviral Assay Using HepG2.2.15 Cells (extracellular HBV DNA by qPCR). It counts as cell-based, hepatitis B virus (HBV). The note with it: HBV DNA inhibition, HepG2.2.15 cells, extracellular HBV DNA by qPCR, read-out: EC50. The method, boiled down: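 HepG2.2.15 cells were treated on day 1 with 8 concentrations (4-fold dilutions, duplicate; 0.5% DMSO), with compound-containing medium refreshed on day 4, at 37 °C. On day 7, supernatant HBV DNA was measured by qPCR against a plasmid standard curve, with inhibition normalised between DMSO and ETV controls. EC50/EC90 and CC50 (CellTiter-Glo ATP) came from variable-slope fits.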
A general note: Real-time PCR tracks product formation cycle by cycle.

What is called EC50 is the concentration that produces a half-maximal response. In the case of `Cc1c(C(=O)C(=O)NC(C)(C)c2cnn(C3CC3)c2)c(C)n(C)c1C(=O)Nc1ccc(F)c(C#N)c1` [Compound 135, N-(3-cyano-4-fluoro-phenyl)-4-[2-[[1-(1-cyclopropylpyrazol-4-yl)-1-methyl-ethyl]amino]-2-oxo-acetyl]-1,3,5-trimethyl-pyrrole-2-carboxamide], the EC50 (Hepatitis B virus) is 1 to 10 nM.
Same read-out and setting: with `Cc1c(C(=O)C(=O)NC(C)(C)c2cnn(C3CC3)c2)c(C)n(C)c1C(=O)Nc1ccc(F)c(C(F)(F)F)c1` [Compound 136, 4-[2-[[1-(1-cyclopropylpyrazol-4-yl)-1-methyl-ethyl]amino]-2-oxo-acetyl]-N-[4-fluoro-3-(trifluoromethyl)phenyl]-1,3,5-trimethyl-pyrrole-2-carboxamide] the figure was 1 to 10 nM.
On the same count and under the same terms, with `Cc1c(C(=O)C(=O)NC(C)(C)c2ccnn2C)c(C)n(C)c1C(=O)Nc1ccc(F)c(C#N)c1` [Compound 137, N-(3-cyano-4-fluoro-phenyl)-1,3,5-trimethyl-4-[2-[[1-methyl-1-(2-methylpyrazol-3-yl)ethyl]amino]-2-oxo-acetyl]pyrrole-2-carboxamide] the figure was 1 to 10 nM; with `Cc1c(C(=O)C(=O)NC(C)(C)c2ccnn2C)c(C)n(C)c1C(=O)Nc1ccc(F)c(C(F)(F)F)c1` [Compound 138, N-[4-fluoro-3-(trifluoromethyl)phenyl]-1,3,5-trimethyl-4-[2-[[1-methyl-1-(2-methylpyrazol-3-yl)ethyl]amino]-2-oxo-acetyl]pyrrole-2-carboxamide], 1 to 10 nM; with `Cc1c(C(=O)C(=O)NC(C)(C)c2nnco2)c(C)n(C)c1C(=O)Nc1ccc(F)c(C#N)c1` [Compound 139, N-(3-cyano-4-fluoro-phenyl)-1,3,5-trimethyl-4-[2-[[1-methyl-1-(1,3,4-oxadiazol-2-yl)ethyl]amino]-2-oxo-acetyl]pyrrole-2-carboxamide], 1 to 10 nM.
As to `Cc1c(C(=O)C(=O)NC(C)(C)c2cscn2)c(C)n(C)c1C(=O)Nc1ccc(F)c(C#N)c1` [Compound 140, N-(3-cyano-4-fluoro-phenyl)-1,3,5-trimethyl-4-[2-[(1-methyl-1-thiazol-4-yl-ethyl)amino]-2-oxo-acetyl]pyrrole-2-carboxamide], the EC50 (Hepatitis B virus) lay within 1 to 10 nM.
As for `Cc1c(C(=O)C(=O)NC(C)(C)c2cscn2)c(C)n(C)c1C(=O)Nc1ccc(F)c(C(F)(F)F)c1` [Compound 141, N-[4-fluoro-3-(trifluoromethyl)phenyl]-1,3,5-trimethyl-4-[2-[(1-methyl-1-thiazol-4-yl-ethyl)amino]-2-oxo-acetyl]pyrrole-2-carboxamide], where the note is “Hepatitis B virus”, the EC50 lay within 1 to 10 nM.
As for `Cc1c(C(=O)C(=O)NC2(c3cnn(C4CC4)n3)CC(F)(F)C2)c(C)n(C)c1C(=O)Nc1ccc(F)c(C(F)(F)F)c1` [Compound 142, 4-[2-[[1-(2-cyclopropyltriazol-4-yl)-3,3-difluoro-cyclobutyl]amino]-2-oxo-acetyl]-N-[4-fluoro-3-(trifluoromethyl)phenyl]-1,3,5-trimethyl-pyrrole-2-carboxamide], the EC50 lay within 1 to 10 nM.
Regarding `Cc1c(C(=O)C(=O)NC(C)(C)c2nnco2)c(C)n(C)c1C(=O)Nc1ccc(F)c(C(F)(F)F)c1` [Compound 143, N-[4-fluoro-3-(trifluoromethyl)phenyl]-1,3,5-trimethyl-4-[2-[[1-methyl-1-(1,3,4-oxadiazol-2-yl)ethyl]amino]-2-oxo-acetyl]pyrrole-2-carboxamide], the EC50 (Hepatitis B virus) fell in the range of 1 to 10 nM.
On the same count and under the same terms, the same measure for `Cc1c(C(=O)C(=O)NC(C)(C)c2cncnc2)c(C)n(C)c1C(=O)Nc1ccc(F)c(C#N)c1` [Compound 144, N-(3-cyano-4-fluoro-phenyl)-1,3,5-trimethyl-4-[2-[(1-methyl-1-pyrimidin-5-yl-ethyl)amino]-2-oxo-acetyl]pyrrole-2-carboxamide]: 1 to 10 nM; for `Cc1c(C(=O)C(=O)NC(C)(C)c2ccc(F)cn2)c(C)n(C)c1C(=O)Nc1ccc(F)c(C#N)c1` [Compound 145, N-(3-cyano-4-fluoro-phenyl)-4-[2-[[1-(5-fluoro-2-pyridyl)-1-methyl-ethyl]amino]-2-oxo-acetyl]-1,3,5-trimethyl-pyrrole-2-carboxamide]: 1 to 10 nM.
For the molecule `Cc1c(C(=O)C(=O)NC2(c3cn(C4CC4)nn3)CC(F)(F)C2)c(C)n(C)c1C(=O)Nc1ccc(F)c(C(F)(F)F)c1` [Compound 146, 4-[2-[[1-(1-cyclopropyltriazol-4-yl)-3,3-difluoro-cyclobutyl]amino]-2-oxo-acetyl]-N-[4-fluoro-3-(trifluoromethyl)phenyl]-1,3,5-trimethyl-pyrrole-2-carboxamide], the EC50 was 1 to 10 nM.
Regarding `Cc1c(C(=O)C(=O)NC(C)(C)c2ccc(F)cn2)c(C)n(C)c1C(=O)Nc1ccc(F)c(C(F)(F)F)c1` [Compound 147, 4-[2-[[l-(5-fluoro-2-pyridyl)-1-methyl-ethyl]amino]-2-oxo-acetyl]-N-[4-fluoro-3-(trifluoromethyl)phenyl]-1,3,5-trimethyl-pyrrole-2-carboxamide], the EC50 lay in the range of 1 to 10 nM.
For the molecule `Cc1c(C(=O)C(=O)NC(C)(C)c2cncnc2)c(C)n(C)c1C(=O)Nc1ccc(F)c(C(F)(F)F)c1` [Compound 148, N-[4-fluoro-3-(trifluoromethyl)phenyl]-1,3,5-trimethyl-4-[2-[(1-methyl-1-pyrimidin-5-yl-ethyl)amino]-2-oxo-acetyl]pyrrole-2-carboxamide], the EC50 (Hepatitis B virus) was 1 to 10 nM.
On to `Cc1c(C(=O)C(=O)NC(C)(C)c2cn(C)cn2)c(C)n(C)c1C(=O)Nc1ccc(F)c(C(F)(F)F)c1` [Compound 149, N-[4-fluoro-3-(trifluoromethyl)phenyl]-1,3,5-trimethyl-4-[2-[[1-methyl-1-(1-methylimidazol-4-yl)ethyl]amino]-2-oxo-acetyl]pyrrole-2-carboxamide], for which the half-maximal effective concentration (EC50) (Hepatitis B virus) lay within 100 to 1000 nM.
With `Cc1c(C(=O)C(=O)NC2(c3ccncc3)CC(F)(F)C2)c(C)n(C)c1C(=O)Nc1ccc(F)c(C(F)(F)F)c1` [Compound 150, 4-[2-[[3,3-difluoro-1-(4-pyridyl)cyclobutyl]amino]-2-oxo-acetyl]-N-[4-fluoro-3-(trifluoromethyl)phenyl]-1,3,5-trimethyl-pyrrole-2-carboxamide], where the note is “Hepatitis B virus”, the EC50 was below 1 nM.
On the same count and under the same terms, with `Cc1c(C(=O)C(=O)NC2(c3cn[nH]c3)COC2)c(C)n(C)c1C(=O)Nc1ccc(F)c(C#N)c1` [Compound 151, N-(3-cyano-4-fluoro-phenyl)-1,3,5-trimethyl-4-[2-oxo-2-[[3-(1H-pyrazol-4-yl)oxetan-3-yl]amino]acetyl]pyrrole-2-carboxamide] the figure was 1 to 10 nM; with `Cc1c(C(=O)C(=O)NC(C)(C)c2ccncn2)c(C)n(C)c1C(=O)Nc1ccc(F)c(C#N)c1` [Compound 152, N-(3-cyano-4-fluoro-phenyl)-1,3,5-trimethyl-4-[2-[(1-methyl-1-pyrimidin-4-yl-ethyl)amino]-2-oxo-acetyl]pyrrole-2-carboxamide], 1 to 10 nM; with `Cc1c(C(=O)C(=O)NC(C)(C)c2ccncn2)c(C)n(C)c1C(=O)Nc1ccc(F)c(C(F)(F)F)c1` [Compound 153, N-[4-fluoro-3-(trifluoromethyl)phenyl]-1,3,5-trimethyl-4-[2-[(1-methyl-1-pyrimidin-4-yl-ethyl)amino]-2-oxo-acetyl]pyrrole-2-carboxamide], below 1 nM.
